The source of these data is ChEMBL document CHEMBL4325829, “Design and Synthesis of Tubulin and Histone Deacetylase Inhibitor Based on iso-Combretastatin A-4” (J Med Chem, 2018).

Converted amounts (≈) assume the structure as drawn. The source made the active and inactive calls. The rule behind the calls is not given here.

One data set deals with A549. As to the kind of experiment: Antiproliferative activity against human A549 cells after 72 hrs by MTS assay. In kind it is functional. Particulars: Homo sapiens, A549, 72 h. A general note: Formazan colour is commonly taken as a measure of viable cells.
Another data set relates to U-87 MG. Briefly: Antiproliferative activity against human U87 cells after 72 hrs by MTS assay. It counts as functional, U-87MG ATCC. As to conditions: Homo sapiens, U-87 MG, 72 h.
The target in data set [1] is Histone deacetylase 3 (Homo sapiens) (UniProt O15379). As to the kind of experiment: Inhibition of human recombinant HDAC3 at 10^-5 M after 10 mins using fluorogenic substrate by fluorimetric assay relative to control.
Sequence of Histone deacetylase 3 (Homo sapiens) (O15379 whole entry): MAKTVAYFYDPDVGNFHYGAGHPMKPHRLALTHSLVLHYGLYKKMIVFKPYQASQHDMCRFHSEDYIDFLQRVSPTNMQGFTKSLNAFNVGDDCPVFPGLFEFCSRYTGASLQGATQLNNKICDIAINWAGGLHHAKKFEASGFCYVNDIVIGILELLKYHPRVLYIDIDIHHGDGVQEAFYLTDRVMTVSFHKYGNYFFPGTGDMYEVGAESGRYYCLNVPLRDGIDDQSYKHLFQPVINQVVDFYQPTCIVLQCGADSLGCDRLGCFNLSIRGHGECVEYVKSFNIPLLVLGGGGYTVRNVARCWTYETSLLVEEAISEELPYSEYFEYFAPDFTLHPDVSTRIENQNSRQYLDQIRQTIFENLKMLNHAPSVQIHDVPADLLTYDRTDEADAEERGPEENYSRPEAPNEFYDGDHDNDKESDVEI
The target of data set [2] is Histone deacetylase 5 (Homo sapiens) (UniProt Q9UQL6). As to the kind of experiment: Inhibition of human recombinant HDAC5 at 10^-5 M after 30 mins using fluorogenic substrate by fluorimetric assay relative to control.
Sequence of Histone deacetylase 5 (Homo sapiens) (Q9UQL6 whole entry): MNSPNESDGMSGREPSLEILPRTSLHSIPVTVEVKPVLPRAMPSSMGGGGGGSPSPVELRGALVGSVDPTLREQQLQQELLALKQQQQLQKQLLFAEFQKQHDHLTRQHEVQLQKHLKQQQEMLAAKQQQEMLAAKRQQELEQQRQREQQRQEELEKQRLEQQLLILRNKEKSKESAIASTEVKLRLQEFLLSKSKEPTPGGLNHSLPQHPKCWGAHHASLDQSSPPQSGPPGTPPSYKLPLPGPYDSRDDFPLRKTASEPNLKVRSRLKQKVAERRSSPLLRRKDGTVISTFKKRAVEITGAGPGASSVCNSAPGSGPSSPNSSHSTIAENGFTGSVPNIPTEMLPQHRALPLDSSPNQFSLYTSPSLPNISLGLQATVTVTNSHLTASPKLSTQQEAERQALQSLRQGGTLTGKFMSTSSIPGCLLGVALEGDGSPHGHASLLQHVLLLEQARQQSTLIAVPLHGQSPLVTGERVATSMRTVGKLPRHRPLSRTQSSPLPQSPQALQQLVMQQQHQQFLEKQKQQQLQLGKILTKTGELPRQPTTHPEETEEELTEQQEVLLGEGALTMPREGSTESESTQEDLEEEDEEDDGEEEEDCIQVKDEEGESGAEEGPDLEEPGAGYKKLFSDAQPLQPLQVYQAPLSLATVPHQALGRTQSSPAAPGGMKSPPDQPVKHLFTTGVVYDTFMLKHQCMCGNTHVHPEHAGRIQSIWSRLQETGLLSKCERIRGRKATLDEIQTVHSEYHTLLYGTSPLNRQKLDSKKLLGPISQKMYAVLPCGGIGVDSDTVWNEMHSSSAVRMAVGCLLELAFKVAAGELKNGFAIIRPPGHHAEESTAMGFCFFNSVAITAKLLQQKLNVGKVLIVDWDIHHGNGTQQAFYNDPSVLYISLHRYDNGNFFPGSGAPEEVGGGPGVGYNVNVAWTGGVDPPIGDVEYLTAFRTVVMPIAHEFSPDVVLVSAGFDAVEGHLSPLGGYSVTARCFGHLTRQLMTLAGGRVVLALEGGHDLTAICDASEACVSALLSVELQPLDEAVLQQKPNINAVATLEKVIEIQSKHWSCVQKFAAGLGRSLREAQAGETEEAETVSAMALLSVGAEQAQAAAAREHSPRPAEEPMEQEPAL
The target of data set [3] is Histone deacetylase 4 (Homo sapiens) (UniProt P56524). Briefly: Inhibition of human recombinant HDAC4 at 10^-5 M after 30 mins using fluorogenic substrate by fluorimetric assay relative to control.
Sequence of Histone deacetylase 4 (Homo sapiens) (P56524 whole entry): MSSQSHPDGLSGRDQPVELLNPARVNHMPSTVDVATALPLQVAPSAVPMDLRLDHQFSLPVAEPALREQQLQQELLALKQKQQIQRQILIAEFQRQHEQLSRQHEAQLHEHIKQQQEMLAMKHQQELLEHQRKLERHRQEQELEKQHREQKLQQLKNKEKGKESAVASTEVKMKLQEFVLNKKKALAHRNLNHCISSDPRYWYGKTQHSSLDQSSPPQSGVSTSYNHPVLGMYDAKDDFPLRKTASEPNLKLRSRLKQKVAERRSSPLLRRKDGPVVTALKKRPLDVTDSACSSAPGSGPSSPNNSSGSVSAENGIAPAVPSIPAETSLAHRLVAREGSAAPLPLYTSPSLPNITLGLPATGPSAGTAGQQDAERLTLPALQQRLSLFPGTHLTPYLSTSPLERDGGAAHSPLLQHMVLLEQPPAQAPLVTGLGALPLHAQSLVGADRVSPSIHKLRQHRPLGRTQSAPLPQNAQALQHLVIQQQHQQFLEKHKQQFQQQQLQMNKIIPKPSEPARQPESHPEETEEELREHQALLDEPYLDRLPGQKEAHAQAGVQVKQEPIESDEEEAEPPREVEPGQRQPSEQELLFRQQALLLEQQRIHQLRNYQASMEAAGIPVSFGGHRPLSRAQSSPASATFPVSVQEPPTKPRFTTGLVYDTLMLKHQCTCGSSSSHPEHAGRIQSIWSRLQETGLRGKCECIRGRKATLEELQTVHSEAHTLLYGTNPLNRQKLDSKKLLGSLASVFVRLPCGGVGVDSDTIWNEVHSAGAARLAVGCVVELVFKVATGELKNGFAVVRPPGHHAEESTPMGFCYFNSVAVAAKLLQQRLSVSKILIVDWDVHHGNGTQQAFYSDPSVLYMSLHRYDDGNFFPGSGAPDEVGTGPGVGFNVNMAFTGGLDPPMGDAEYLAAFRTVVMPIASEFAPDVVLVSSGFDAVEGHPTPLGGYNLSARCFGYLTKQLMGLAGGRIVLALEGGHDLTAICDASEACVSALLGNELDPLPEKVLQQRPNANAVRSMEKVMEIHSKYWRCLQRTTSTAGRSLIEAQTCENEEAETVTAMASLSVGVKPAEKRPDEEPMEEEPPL
In another data set the test system is MIA PaCa-2. As to the kind of experiment: Antiproliferative activity against human MIAPaCa2 cells after 72 hrs by MTS assay. It counts as functional. As to conditions: Homo sapiens, MIA PaCa-2, 72 h.
Data set [4] addresses Histone deacetylase 7 (Homo sapiens) (UniProt Q8WUI4). Briefly: Inhibition of human recombinant HDAC7 at 10^-5 M after 45 mins using fluorogenic substrate by fluorimetric assay relative to control.
Data set [5] is described as follows: Induction of apoptosis in human BL2 cells assessed as early apoptotic cells at 10 nM after 48 hrs by annexin V-FITC/propidium iodide double staining-based flow cytometry (reference value: 8.2%). In kind it is functional. On the technique in general: In flow cytometry, cells or beads pass a laser one at a time.
Data set [6] concerns the target Histone deacetylase 1 (Homo sapiens) (UniProt Q13547). Briefly: Inhibition of human recombinant HDAC1 at 10^-5 M after 15 mins using fluorogenic substrate by fluorimetric assay relative to control.
In a further data set the test system is PBL. As to the kind of experiment: Cytotoxicity against human PBL cells assessed as cell growth inhibition after 72 hrs by MTS assay. In kind it is ADME, cell-based.
A short description of data set [7]: Aqueous solubility of the compound. As to conditions: water. In kind it is physicochemical.
For another data set, the system named is MCF7. Briefly: Antiproliferative activity against human MCF7 cells after 72 hrs by MTS assay. It counts as functional. Particulars: Homo sapiens, MCF7, 72 h.
For the next data set, the target named is T1, Histone deacetylase 11 (Homo sapiens, UniProt Q96DB2).
T1 sequence (Q96DB2 whole entry): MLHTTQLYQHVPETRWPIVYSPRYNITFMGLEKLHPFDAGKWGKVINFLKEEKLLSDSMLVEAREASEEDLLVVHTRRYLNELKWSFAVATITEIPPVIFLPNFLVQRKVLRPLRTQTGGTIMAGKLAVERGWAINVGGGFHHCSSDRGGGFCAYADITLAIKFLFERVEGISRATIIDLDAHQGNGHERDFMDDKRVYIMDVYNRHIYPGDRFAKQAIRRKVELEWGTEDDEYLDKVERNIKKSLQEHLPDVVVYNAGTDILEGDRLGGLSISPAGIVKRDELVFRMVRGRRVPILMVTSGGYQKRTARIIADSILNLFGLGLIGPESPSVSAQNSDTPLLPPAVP
Briefly: Inhibition of human recombinant HDAC11 after 30 mins using fluorogenic substrate by fluorimetric assay.

The target in data set [8] is Histone deacetylase 9 (Homo sapiens) (UniProt Q9UKV0). Briefly: Inhibition of human recombinant HDAC9 at 10^-5 M after 30 mins using fluorogenic substrate by fluorimetric assay relative to control.
Sequence of Histone deacetylase 9 (Homo sapiens) (Q9UKV0 whole entry): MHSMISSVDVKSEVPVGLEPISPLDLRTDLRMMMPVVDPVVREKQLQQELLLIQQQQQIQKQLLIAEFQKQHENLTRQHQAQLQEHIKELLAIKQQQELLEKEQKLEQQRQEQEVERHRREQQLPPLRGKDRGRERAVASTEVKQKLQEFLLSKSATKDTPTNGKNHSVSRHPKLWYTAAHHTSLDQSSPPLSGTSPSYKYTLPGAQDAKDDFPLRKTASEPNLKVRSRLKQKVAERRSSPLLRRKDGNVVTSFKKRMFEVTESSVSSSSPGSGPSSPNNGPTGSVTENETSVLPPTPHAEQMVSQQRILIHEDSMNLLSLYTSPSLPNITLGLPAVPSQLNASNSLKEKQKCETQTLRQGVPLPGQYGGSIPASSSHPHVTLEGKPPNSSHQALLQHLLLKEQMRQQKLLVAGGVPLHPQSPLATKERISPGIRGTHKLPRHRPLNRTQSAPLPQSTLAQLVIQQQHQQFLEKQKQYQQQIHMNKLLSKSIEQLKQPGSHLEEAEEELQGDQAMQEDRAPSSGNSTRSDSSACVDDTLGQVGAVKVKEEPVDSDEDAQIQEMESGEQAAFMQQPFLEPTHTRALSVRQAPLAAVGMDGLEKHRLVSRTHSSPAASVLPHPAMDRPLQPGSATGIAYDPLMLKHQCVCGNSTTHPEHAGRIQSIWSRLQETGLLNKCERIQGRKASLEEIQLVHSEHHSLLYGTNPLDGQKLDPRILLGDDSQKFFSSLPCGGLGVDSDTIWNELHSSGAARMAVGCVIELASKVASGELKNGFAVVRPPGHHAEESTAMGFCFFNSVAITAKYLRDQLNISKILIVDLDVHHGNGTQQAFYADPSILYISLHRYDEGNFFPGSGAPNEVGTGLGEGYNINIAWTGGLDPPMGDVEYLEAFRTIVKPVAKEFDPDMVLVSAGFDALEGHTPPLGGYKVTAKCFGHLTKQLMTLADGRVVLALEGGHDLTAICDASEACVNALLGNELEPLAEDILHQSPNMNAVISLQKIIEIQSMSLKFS
The nature of data set [9]: Inhibition of sheep brain tubulin polymerization assessed as reduction in rate of microtubule assembly by DAPI-fluorescence based assay. Also noted: species or system Ovis aries.
A further data set relates to HCT-116. As to the kind of experiment: Antiproliferative activity against human HCT116 cells after 72 hrs by MTS assay. In kind it is functional. Particulars: Homo sapiens, HCT-116, 72 h.
The target of data set [10] is Polyamine deacetylase HDAC10 (Homo sapiens) (UniProt Q969S8). Briefly: Inhibition of human recombinant HDAC10 at 10^-5 M after 45 mins using fluorogenic substrate by fluorimetric assay relative to control.
Sequence of Polyamine deacetylase HDAC10 (Homo sapiens) (Q969S8 whole entry): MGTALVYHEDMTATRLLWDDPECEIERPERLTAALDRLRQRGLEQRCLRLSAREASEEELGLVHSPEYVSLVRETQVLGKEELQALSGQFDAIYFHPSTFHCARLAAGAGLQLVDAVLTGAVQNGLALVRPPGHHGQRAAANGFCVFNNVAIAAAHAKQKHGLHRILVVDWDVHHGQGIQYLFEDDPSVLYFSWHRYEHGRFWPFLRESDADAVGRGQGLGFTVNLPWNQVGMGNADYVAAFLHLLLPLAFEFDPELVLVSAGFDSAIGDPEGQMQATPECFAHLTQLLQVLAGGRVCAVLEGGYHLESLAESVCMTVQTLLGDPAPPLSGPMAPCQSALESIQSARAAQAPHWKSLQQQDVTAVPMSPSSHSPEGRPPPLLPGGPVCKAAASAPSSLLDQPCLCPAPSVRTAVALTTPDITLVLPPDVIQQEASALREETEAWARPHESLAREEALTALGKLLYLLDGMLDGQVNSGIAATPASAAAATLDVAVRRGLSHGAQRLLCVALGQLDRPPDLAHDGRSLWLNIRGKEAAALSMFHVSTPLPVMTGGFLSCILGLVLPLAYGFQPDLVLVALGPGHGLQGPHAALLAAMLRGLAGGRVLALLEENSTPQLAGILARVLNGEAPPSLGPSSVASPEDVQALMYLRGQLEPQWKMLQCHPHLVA
In a further data set the test system is PC-3. Briefly: Antiproliferative activity against human PC3 cells after 72 hrs by MTS assay. In kind it is functional. Particulars: Homo sapiens, PC-3, 72 h.
The target of data set [11] is T2, Protein deacetylase HDAC6 (Homo sapiens) (UniProt Q9UBN7).
T2 sequence (whole entry): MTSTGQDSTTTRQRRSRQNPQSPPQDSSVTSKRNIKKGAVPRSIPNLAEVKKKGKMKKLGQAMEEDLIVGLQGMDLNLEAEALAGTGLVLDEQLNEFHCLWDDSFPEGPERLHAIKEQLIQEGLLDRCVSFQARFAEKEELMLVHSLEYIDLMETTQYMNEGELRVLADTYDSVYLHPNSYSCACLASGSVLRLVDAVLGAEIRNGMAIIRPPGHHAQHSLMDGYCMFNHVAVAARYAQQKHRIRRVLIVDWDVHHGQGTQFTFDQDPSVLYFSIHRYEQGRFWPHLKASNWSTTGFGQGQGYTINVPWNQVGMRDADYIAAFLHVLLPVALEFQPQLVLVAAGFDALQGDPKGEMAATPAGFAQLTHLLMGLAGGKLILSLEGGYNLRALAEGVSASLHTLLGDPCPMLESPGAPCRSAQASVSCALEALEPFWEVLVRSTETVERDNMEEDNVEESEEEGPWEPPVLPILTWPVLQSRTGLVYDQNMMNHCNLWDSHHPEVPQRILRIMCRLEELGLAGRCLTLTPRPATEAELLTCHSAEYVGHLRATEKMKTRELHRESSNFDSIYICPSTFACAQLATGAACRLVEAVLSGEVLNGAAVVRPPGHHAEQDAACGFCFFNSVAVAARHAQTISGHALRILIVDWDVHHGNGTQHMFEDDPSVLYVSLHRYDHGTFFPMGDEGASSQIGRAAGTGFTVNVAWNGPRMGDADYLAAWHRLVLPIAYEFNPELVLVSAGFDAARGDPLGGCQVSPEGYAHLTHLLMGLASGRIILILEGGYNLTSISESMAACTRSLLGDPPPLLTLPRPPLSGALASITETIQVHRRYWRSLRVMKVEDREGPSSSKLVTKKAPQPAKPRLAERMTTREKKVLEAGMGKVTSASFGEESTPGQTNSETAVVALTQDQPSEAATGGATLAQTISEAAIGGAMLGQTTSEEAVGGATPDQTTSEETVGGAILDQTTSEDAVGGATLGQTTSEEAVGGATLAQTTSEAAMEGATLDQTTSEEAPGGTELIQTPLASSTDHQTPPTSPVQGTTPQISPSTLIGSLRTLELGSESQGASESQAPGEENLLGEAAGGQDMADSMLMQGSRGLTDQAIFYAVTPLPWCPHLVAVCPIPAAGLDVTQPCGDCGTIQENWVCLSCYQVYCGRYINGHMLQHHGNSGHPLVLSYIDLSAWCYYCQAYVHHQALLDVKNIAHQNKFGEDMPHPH
As to the kind of experiment: Inhibition of human recombinant HDAC6 at 10^-5 M after 30 mins using fluorogenic substrate by fluorimetric assay relative to control.

The test system of the next data set is BXPC-3. As to the kind of experiment: Antiproliferative activity against human BxPC3 cells after 72 hrs by MTS assay. As to conditions: Homo sapiens, BXPC-3, 72 h. In kind it is functional.
A further data set concerns HT-29. As to the kind of experiment: Antiproliferative activity against human HT-29 cells after 72 hrs by MTS assay. It counts as functional. Particulars: Homo sapiens, HT-29, 72 h.
The nature of data set [12]: Lipophilicity, log P of the compound. It counts as physicochemical. Particulars: octanol/water.

Sequence of Histone deacetylase 1 (Homo sapiens) (Q13547 whole entry): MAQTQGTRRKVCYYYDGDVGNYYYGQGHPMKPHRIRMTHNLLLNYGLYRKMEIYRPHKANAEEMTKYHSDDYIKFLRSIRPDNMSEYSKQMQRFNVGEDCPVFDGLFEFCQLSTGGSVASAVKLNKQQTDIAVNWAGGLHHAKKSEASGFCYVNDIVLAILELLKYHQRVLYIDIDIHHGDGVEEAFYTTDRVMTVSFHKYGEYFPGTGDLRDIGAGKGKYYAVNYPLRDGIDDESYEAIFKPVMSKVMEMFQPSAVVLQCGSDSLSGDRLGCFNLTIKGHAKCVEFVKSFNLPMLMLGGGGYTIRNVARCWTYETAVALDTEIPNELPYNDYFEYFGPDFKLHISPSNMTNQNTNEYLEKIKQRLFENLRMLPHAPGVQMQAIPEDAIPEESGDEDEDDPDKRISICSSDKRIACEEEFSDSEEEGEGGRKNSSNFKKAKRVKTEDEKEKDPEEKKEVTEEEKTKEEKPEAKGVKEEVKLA

Take `C=C(c1ccc(OC)c(/C=C/C(=O)NO)c1)c1cc(OC)c(OC)c(OC)c1`: the concentration for 50% growth inhibition (GI50) is 1.7 nM in the data set on A549; 1.6 nM with U-87 MG; 5.1 nM in the data set with MIA PaCa-2; 2 nM with MCF7; 1.5 nM with HCT-116; 0.4 nM in the data set with PC-3. In addition, the GI50 turned out to be 2.9 nM in the data set with BXPC-3 and 2.04 nM in the data set on HT-29. For the same compound, the inhibition in data set [1], in data set [2], in [3], in data set [4], in [6] and in [8] was less than 50% in each case. Also, the inhibition in data set [10] and in data set [11] was less than 50% throughout. Besides, the Activity in data set [5] is on record as 82.1%. The figures for the concentration for half-maximal inhibition (IC50) (in the data set on PBL; at Histone deacetylase 11 (read-out: IC50); in data set [9]) were 7000 nM, 10000 nM and 1600 nM, respectively. This compound also gave a solubility in data set [7] of 69.3 µg/mL (≈ 180 µM). Besides, in data set [12] (read-out: logP), the logP is 2.93.

Consider `C=C(c1ccc(OC)c(O)c1)c1cc(OC)c(OC)c(OC)c1`, for which the GI50 in the data set with A549 stood at 10 nM; with U-87 MG it was 8 nM; in the data set on MIA PaCa-2 it was 10 nM; in the data set on MCF7, 8 nM; with HCT-116, 2 nM; with PC-3, 3 nM. For the same compound, the concentration for 50% growth inhibition (GI50) was 20 nM in the data set on BXPC-3 and 276 nM in the data set with HT-29. The inhibition entry in data set [1], in data set [2], in data set [3], in data set [4], in data set [6] and in [8] was “inactive” throughout. Also, the inhibition result in data set [10] and in data set [11] was “inactive” throughout. Also, the Activity in data set [5] is given as 81.7%. The half-inhibitory concentration (IC50) with PBL is 1700 nM; at Histone deacetylase 11, “Not Active”; in [9], 2000 nM. In data set [7], this compound yielded a solubility of 11.6 µg/mL (≈ 36.7 µM). This compound yielded a logP in data set [12] of 2.16.

Broadly, the GI50 is the concentration at which growth is held to half of that of the control. Read a high GI50 as lower sensitivity of the cells. The term inhibition denotes the relative decrease from the control value, in per cent. One may read the IC50 as the concentration at which inhibition is half-maximal. Usually solubility stands for the dissolved amount per volume that the medium holds. In general, logP refers to a log measure of how a compound divides between an organic and an aqueous phase.
